This is an account of results in ChEMBL document CHEMBL1201862, “PubChem BioAssay data set” (2004).

Test [1] concerns the target T1, Protein kinase C zeta type (Homo sapiens, UniProt Q05513).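 Further: measured as one member of a broad kinase profiling panel.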
T1 sequence (Q05513 whole entry): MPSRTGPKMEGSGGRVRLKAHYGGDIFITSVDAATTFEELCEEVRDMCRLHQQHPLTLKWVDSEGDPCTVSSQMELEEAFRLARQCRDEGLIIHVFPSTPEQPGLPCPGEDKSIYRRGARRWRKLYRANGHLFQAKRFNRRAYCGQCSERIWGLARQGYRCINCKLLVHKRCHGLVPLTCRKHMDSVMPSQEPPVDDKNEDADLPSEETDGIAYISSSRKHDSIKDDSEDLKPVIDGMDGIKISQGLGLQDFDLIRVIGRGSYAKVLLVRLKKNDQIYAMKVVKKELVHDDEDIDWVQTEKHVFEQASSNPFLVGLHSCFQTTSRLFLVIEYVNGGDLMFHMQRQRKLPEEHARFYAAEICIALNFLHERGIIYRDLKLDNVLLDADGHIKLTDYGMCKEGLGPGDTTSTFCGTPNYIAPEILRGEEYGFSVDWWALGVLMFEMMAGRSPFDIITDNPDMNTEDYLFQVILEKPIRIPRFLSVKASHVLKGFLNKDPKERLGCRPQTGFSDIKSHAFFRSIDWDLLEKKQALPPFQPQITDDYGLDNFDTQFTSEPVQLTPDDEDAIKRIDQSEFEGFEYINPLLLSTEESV
The format is functional.

The target in test [2] is RAC-gamma serine/threonine-protein kinase (Homo sapiens, UniProt Q9Y243). The format is functional.
Chain of RAC-gamma serine/threonine-protein kinase (Q9Y243 whole entry, canonical isoform): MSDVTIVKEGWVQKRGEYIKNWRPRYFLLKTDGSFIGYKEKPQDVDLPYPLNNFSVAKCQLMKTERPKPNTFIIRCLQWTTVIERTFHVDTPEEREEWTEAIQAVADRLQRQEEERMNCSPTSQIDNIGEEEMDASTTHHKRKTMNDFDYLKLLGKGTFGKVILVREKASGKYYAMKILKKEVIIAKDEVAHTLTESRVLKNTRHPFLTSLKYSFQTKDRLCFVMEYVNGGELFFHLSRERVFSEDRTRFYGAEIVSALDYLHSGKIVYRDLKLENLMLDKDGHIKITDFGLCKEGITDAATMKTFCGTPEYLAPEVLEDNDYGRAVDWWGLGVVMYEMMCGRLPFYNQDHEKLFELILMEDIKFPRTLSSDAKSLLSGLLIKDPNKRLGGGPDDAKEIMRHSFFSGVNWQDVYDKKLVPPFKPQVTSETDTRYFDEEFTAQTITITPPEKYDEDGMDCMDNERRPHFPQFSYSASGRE
The target in test [3] is Casein kinase I isoform alpha (Homo sapiens, UniProt P48729). In kind it is functional.
The target in test [4] is Tyrosine-protein kinase JAK3 (Homo sapiens, UniProt P52333). In kind it is functional.
The next test concerns the target Misshapen-like kinase 1 (Homo sapiens, UniProt Q8N4C8). The format is functional.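 Further: kinome panel screen with MINK as the panel member.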
For test [5], the target named is STE20-like serine/threonine-protein kinase (Homo sapiens, UniProt Q9H2G2). In kind it is functional.
Chain of STE20-like serine/threonine-protein kinase (Q9H2G2 whole entry): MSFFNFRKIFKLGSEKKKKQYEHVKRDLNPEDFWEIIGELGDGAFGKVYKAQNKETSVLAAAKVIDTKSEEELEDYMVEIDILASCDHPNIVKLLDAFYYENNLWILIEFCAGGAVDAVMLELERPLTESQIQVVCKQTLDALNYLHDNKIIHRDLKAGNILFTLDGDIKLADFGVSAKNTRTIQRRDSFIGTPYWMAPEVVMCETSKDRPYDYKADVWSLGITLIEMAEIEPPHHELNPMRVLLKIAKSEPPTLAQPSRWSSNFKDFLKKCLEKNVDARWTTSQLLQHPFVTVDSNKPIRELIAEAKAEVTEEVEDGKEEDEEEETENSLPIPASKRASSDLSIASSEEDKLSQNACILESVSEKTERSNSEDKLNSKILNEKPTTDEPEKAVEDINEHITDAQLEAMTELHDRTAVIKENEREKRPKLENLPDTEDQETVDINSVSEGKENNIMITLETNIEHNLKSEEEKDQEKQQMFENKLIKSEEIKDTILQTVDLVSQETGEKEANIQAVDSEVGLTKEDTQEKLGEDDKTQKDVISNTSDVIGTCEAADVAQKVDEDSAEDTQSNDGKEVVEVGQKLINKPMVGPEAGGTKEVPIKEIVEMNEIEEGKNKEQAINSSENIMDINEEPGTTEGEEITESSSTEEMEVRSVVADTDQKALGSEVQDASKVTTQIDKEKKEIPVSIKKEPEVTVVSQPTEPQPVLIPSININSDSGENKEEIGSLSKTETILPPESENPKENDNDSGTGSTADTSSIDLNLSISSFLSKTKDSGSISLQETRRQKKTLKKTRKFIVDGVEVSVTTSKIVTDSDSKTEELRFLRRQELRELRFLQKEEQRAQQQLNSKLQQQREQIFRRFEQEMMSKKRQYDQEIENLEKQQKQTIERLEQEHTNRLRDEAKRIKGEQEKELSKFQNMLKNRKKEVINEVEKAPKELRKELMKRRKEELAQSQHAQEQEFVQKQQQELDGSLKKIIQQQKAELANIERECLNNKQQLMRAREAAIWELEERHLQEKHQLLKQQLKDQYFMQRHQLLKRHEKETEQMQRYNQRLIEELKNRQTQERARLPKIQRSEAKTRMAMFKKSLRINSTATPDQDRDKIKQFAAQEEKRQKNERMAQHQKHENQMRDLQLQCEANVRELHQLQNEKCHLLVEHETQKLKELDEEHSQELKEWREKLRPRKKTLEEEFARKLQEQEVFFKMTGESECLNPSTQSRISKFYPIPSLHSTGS
Another test concerns the target SRSF protein kinase 1 (Homo sapiens, UniProt Q96SB4). The format is functional.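 Further: measured as one member of a kinome-wide kinase profiling panel.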
In test [6] the target is Serine/threonine-protein kinase 3 (Homo sapiens, UniProt Q13188). The format is functional.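 Further: measured as one member of a kinome-wide kinase panel.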
Chain of Serine/threonine-protein kinase 3 (Q13188 whole entry): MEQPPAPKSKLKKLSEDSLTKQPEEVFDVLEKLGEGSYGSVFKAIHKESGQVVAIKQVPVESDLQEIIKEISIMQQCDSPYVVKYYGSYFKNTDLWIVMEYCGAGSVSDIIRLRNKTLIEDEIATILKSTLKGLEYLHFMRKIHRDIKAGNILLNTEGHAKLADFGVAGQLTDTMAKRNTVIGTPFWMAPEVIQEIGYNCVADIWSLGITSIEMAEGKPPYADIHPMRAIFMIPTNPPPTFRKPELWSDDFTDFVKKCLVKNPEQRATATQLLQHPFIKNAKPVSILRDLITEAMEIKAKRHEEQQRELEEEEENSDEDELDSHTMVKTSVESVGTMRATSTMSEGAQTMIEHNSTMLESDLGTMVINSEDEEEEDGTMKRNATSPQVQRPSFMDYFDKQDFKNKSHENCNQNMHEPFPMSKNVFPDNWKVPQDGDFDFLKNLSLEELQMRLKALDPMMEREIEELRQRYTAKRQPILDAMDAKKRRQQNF
For test [7], the target named is T2, Lymphokine-activated killer T-cell-originated protein kinase (Homo sapiens, UniProt Q96KB5).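 Further: value comes from a kinase panel screen in which TOPK was one of the panel members.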
T2 sequence (Q96KB5 whole entry): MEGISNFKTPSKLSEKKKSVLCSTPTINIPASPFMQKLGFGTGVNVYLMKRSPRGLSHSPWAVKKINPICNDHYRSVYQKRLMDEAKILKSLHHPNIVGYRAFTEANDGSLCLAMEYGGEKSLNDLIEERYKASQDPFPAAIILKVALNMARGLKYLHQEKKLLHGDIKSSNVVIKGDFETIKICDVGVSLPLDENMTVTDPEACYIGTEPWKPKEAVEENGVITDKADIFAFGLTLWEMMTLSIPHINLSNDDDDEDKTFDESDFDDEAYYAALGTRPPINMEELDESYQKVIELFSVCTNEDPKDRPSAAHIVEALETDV
The format is functional.

Test [8] concerns the target Serine/threonine-protein kinase PAK 4 (Homo sapiens, UniProt O96013). In kind it is functional.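 Further: value obtained within a kinome profiling panel in which PAK4 was one of the panel members.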
The target in test [9] is Non-receptor tyrosine-protein kinase TYK2 (Homo sapiens, UniProt P29597). In kind it is functional.
Chain of Non-receptor tyrosine-protein kinase TYK2 (P29597 whole entry): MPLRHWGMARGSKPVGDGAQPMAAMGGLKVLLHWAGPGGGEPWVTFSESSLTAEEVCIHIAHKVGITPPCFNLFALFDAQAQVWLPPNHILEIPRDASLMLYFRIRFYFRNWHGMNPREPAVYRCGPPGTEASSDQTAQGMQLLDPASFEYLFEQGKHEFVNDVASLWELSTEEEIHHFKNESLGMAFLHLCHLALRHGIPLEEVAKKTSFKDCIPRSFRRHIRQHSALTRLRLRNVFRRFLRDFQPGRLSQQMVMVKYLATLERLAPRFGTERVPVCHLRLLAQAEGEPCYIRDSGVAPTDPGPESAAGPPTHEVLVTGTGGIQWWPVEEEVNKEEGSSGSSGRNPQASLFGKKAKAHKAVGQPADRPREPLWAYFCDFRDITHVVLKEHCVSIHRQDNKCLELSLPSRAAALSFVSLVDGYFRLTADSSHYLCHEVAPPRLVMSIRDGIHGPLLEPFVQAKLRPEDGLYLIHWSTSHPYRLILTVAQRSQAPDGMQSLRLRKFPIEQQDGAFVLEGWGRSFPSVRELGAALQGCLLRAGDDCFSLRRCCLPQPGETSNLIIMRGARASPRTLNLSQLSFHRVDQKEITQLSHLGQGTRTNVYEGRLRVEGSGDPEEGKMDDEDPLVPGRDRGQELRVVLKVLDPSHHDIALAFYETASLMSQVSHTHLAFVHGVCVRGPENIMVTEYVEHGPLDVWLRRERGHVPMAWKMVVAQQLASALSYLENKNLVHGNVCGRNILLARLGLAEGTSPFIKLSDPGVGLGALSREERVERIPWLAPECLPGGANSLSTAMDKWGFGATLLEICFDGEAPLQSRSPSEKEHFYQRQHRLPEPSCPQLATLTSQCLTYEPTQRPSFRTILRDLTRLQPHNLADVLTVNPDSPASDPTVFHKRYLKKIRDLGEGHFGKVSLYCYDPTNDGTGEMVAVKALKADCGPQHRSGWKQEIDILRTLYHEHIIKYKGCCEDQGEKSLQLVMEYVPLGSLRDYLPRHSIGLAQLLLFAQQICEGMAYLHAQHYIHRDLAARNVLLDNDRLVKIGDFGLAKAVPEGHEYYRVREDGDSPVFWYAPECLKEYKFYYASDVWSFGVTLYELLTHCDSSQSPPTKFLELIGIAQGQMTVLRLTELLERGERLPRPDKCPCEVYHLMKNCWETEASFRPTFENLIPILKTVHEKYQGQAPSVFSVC
Test [10] concerns the target BDNF/NT-3 growth factors receptor (Homo sapiens, UniProt Q16620). In kind it is functional.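 Further: NTRK2 measured as one member of a broad kinome-wide kinase profiling panel.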
Test [11] has as its target Vascular endothelial growth factor receptor 3 (Homo sapiens, UniProt P35916). The format is functional.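 Further: value from a kinome-wide profiling panel, with FLT4 as the panel member.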
Test [12] deals with Eukaryotic elongation factor 2 kinase (Homo sapiens, UniProt O00418). In kind it is functional.
The target of test [13] is Glycogen synthase kinase-3 alpha (Homo sapiens, UniProt P49840). In kind it is functional.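 Further: GSK3A result taken from a broad kinome-wide kinase panel.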
Chain of Glycogen synthase kinase-3 alpha (P49840 whole entry): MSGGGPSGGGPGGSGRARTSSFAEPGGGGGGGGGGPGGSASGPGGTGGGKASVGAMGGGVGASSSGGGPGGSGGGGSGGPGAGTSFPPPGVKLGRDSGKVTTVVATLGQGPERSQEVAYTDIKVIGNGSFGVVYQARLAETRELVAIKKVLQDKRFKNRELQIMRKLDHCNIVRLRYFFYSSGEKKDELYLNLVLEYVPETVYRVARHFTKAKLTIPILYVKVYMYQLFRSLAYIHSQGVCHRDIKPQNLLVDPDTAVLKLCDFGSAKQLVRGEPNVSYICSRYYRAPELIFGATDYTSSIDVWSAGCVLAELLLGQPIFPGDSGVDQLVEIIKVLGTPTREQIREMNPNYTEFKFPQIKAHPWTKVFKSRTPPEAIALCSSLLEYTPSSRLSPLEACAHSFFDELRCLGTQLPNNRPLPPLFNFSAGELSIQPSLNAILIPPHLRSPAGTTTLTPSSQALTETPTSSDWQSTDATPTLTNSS
The target of test [14] is Calcium/calmodulin-dependent protein kinase type II subunit delta (Homo sapiens, UniProt Q13557). The format is functional.
For test [15], the target named is cGMP-dependent protein kinase 1 (Homo sapiens, UniProt Q13976). The format is functional.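 Further: value from a kinome panel screen with PRKG1 as the panel member.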
Test [16] has as its target Mitogen-activated protein kinase kinase kinase kinase 5 (Homo sapiens, UniProt Q9Y4K4). In kind it is functional.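 Further: measured as one member of a kinome-spanning kinase panel.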
Test [17] addresses Receptor tyrosine-protein kinase erbB-2 (Homo sapiens, UniProt P04626). The experiment in a line: Navigating the Kinome. Panel member name: ERBB2. In kind it is functional.
Test [18] deals with Tyrosine-protein kinase JAK2 (Homo sapiens, UniProt O60674). The format is functional.
Test [19] addresses T3, Tyrosyl-DNA phosphodiesterase 2 (Homo sapiens, UniProt O95551).
T3 sequence (O95551 whole entry): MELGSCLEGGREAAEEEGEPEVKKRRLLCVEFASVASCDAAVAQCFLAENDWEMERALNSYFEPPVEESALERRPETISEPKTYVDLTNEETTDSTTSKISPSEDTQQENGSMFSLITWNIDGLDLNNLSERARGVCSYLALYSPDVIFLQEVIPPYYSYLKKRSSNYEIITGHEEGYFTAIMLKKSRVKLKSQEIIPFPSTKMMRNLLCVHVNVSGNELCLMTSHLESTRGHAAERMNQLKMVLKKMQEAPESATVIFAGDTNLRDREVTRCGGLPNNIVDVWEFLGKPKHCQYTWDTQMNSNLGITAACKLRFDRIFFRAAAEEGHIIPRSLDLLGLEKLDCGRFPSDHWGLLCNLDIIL
The experiment in a line: human TDP2 enzyme inhibitors, dose response, biochemical, epi absorbance, IC50 (AID 743297).

Test [20] can be described thus: MC4R antagonists, dose response, counter-screen for LGR2 antagonist project, cell-based, plate reader, cherry pick (AID 743444).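 Further: transfected HEK 293 cells stimulated with alpha-MSH peptide; potency of inhibitors of the alpha-MSH evoked signal.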 The format is functional.
Test [21] addresses Dual specificity tyrosine-phosphorylation-regulated kinase 1A (Rattus norvegicus, UniProt Q63470). The format is biochemical, Homo sapiens.
Test [22] addresses Dual specificity protein phosphatase 6 (Rattus norvegicus, UniProt Q64346). As to the kind of experiment: MKP-3 phosphatase inhibitors, primary screen, biochemical, rat enzyme, in vitro (AID 425).
Test [23] can be described thus: LGR2 antagonists, dose response, cell-based, HEK293, CRE-luciferase reporter, cherry pick, set 2 (AID 743343).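 Further: transfected cells were stimulated with diluted bursicon conditioned medium after compound addition.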 In kind it is functional. In general terms: A reporter such as luciferase makes a cellular process visible.
Test [24] in a line: Shn3 3'UTR reporter inhibitors, dose response, cell-based, Clone20 osteoblasts, firefly luciferase, cherry-picked (AID 624132).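 Further: firefly luciferase luminescence from reporter carrying the Shn3 3'UTR in osteoblasts.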 The format is functional.
Test [25] in a line: A549 cell cytotoxicity, dose response, cytotoxicity control, plate reader, cherry-pick, antagonist series (AID 743412). In kind it is functional, cell-based.
Test [26] can be described thus: HepG2 cell cytotoxicity, dose response, cytotoxicity control for Shn3 inhibitor project, CellTiter-Glo, cherry-picked (AID 624134). In kind it is functional, cell-based. In general terms: In ATP-based viability assays light output follows the ATP content of the culture.

Molecules are shown by their SMILES. Calls of active or inactive are those of the source.

Chain of SRSF protein kinase 1 (Q96SB4 whole entry): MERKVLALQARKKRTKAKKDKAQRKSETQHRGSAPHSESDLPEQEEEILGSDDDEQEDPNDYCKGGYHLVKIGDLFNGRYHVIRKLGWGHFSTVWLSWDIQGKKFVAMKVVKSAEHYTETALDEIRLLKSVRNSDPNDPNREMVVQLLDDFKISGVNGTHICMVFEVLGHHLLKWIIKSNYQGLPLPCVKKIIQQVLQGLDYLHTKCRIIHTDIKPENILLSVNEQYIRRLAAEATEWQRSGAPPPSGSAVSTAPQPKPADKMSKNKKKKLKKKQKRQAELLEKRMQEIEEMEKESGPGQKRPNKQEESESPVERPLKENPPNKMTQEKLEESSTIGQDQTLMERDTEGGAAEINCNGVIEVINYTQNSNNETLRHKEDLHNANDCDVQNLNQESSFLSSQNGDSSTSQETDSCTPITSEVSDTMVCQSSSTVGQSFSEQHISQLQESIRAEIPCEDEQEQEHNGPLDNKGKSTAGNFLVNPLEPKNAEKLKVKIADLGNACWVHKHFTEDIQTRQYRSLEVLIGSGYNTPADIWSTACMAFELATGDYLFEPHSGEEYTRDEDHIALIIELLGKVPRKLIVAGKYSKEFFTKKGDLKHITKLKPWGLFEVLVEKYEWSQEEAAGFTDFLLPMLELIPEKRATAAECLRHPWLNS
Chain of Dual specificity protein phosphatase 6 (Q64346 whole entry): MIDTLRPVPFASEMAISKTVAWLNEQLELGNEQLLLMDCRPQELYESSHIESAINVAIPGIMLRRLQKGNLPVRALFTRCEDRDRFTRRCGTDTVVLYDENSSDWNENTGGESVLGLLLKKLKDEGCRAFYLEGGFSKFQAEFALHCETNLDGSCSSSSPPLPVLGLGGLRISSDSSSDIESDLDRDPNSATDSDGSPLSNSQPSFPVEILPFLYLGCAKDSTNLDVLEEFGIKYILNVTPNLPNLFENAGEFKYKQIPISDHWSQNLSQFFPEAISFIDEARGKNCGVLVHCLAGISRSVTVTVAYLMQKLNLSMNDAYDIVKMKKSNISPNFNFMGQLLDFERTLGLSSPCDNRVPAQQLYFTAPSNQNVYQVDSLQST

The term Ki denotes a dissociation constant, usually derived from enzyme kinetics or from competition with a known ligand. Take `COc1cc2ncn(-c3cc(OCc4ccccc4C(F)(F)F)c(C(N)=O)s3)c2cc1OC` [GW843682X]: the Ki in test [1] is > 7.94 µM (inactive); in [2], > 10 µM (inactive); in test [3], > 6.31 µM (inactive); in [4], 0.2 µM (active); at Misshapen-like kinase 1, > 7.94 µM (inactive); in test [5] it was 0.0126 µM (active). Besides, the Ki at SRSF protein kinase 1 is > 7.94 µM (inactive); in [6] it was 0.2 µM (active); in test [7] it was > 10 µM (inactive); in test [8], > 5.01 µM (inactive); in test [9] it was > 2 µM (inactive); in test [10] it was > 5.01 µM (inactive). Also, the Ki in [11] is 0.1 µM (active); in test [12], > 3.98 µM (inactive); in [13], > 7.94 µM (inactive); in [14], > 6.31 µM (inactive); in test [15], 0.316 µM (active); in test [16], 0.2 µM (active). Also, the inhibition constant (Ki) in [17] was 1 µM (active); in [18], 1.26 µM (active).
As usually defined, the IC50 is the point on the concentration scale where inhibition reaches its midpoint. As a reminder, the AC50 is the concentration giving half of the maximal activity seen. `CCCc1nc2c(=O)n(C)c(=O)nc-2n(C)n1`: the IC50 is 0.161 µM (active) in [19] and < 1.23 µM (not active) in test [22]. The AC50 is 4.6 µM (active) in test [20]; 0.249 µM (active) in test [21]; 5.47 µM (active) in test [23]; 2.17 µM (active) in test [24]; 6.05 µM (active) in [25]; 4.96 µM (active) in test [26].
As to `CC(=O)c1ccc(NC2=C(N3CCOCC3)C(=O)c3ccccc3C2=O)cc1`, the IC50 in [19] is > 128 µM (inactive).
